target: T1, AAK1 (Homo sapiens, UniProt Q2M2I8); assay: P81 filter plate assay; assay type: biochemical; conditions: full-length human AAK1, Mu2 substrate
T1 construct: HA; expressed in transfected cells; host or cells: HEK293F
Experimental: Compounds were serially diluted into a Labcyte LDV plate (Labcyte, cat#LP-0200) using a Mutiprobe (PerkinElmer) and Biomek FX (Beckman Coulter) so that the highest compound concentration was at 96 μM. Compounds were then pinged (75 nL per well) into a Greiner 384-well reaction plate (Greiner, #781076) using an ECHO 550 Liquid Handler (Labcyte). A total of 12 μl reaction buffer (IMAP buffer containing Tween and DTT, from Molecular Devices) was then added to each well of columns 1 and 13 for the negative controls and 12 μl of 2×AAK1 (0.2 nM full-length human protein, NCBI accession no. NP_055726.2) was added to the remaining wells. Enzyme was then pre-incubated with compound for 10 minutes at RT. Reactions were initiated upon Minitrak (PerkinElmer) addition of 12 μl substrate mix containing 2×Mu2 (0.2 μM, full length human protein), 2× cold ATP (2 μM), and 1.3 μCi of hot ^33P-ATP. Reactions proceeded for one hour at RT. Meanwhile, Millipore 384-well P81 filter plates (Millipore, catalog #MZPHNOW10) were placed on a plate washer (Zoom ZW, from Titertek) and pre-wet with 50 μl 1% phosphoric acid. Kinase reactions were then stopped upon addition of 24 μl of 2% phosphoric acid to each well and the Minitrak was then used to transfer 40 μl from each well into the pre-wet Millipore 384-well P81 filter plates. Reaction mixtures were incubated for 10 minutes at RT in the P81 plates, followed by washing five times with 100 μl/well of 1% phosphoric acid using the Zoom filter washer. The bottom of each filter plate was sealed followed by addition of 20 μl Microscint 40 to each well, sealing the top of the plates with Flashplate cover, and then waiting one hour until reading on the TopCount (PerkinElmer).

T1 sequence (Q2M2I8 1-863 isoform Q2M2I8-2): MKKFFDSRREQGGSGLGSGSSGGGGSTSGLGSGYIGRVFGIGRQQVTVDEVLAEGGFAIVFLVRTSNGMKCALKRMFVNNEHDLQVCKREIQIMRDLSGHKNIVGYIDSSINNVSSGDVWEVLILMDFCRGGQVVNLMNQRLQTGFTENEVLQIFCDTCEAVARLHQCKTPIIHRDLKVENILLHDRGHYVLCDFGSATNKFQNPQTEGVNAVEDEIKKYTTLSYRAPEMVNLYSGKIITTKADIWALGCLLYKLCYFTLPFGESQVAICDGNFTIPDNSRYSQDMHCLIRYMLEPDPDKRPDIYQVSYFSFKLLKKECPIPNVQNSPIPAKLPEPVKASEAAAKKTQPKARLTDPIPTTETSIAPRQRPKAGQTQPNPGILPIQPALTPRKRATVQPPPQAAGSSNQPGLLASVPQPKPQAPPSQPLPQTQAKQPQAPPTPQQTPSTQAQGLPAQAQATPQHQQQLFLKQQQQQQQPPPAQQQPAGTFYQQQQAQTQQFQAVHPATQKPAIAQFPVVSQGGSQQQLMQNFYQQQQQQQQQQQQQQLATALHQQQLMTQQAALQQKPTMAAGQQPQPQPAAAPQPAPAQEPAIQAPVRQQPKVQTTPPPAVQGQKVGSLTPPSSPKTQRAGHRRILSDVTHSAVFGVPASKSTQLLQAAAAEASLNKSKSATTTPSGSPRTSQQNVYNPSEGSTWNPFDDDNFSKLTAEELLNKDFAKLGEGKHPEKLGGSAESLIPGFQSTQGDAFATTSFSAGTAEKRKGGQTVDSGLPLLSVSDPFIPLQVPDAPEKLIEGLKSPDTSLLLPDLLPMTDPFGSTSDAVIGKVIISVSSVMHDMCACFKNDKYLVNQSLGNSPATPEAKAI

IC50 [nM]	SMILES
≤ 100	CC(=O)c1cnc2ccc(N3CCN(C(=O)C4(N)CCCC4)CC3)nn12 [1-(6-(4-(1-aminocyclopentanecarbonyl)piperazin-1-yl)imidazo[1,2-b]pyridazin-3-yl)ethanone]
≤ 100	CC(C)(C)C(=O)N1CCN(c2ccc3ncc(-c4ccccc4)n3n2)CC1 [2,2-dimethyl-1-(4-(3-phenylimidazo[1,2-b]pyridazin-6-yl)piperazin-1-yl)propan-1-one]
≤ 10	O=C(OC1CCOC1)N1CCC[C@H]1CNc1ccc2ncc(-c3ccncc3)n2n1 (stereo partly drawn) [(2S)-tetrahydrofuran-3-yl 2-(((3-(pyridin-4-yl)imidazo[1,2-b]pyridazin-6-yl)amino)methyl)pyrrolidine-1-carboxylate]
≤ 10	O=C(OC1CCOC1)N1CCC[C@H]1CNc1ccc2ncc(Br)n2n1 (stereo partly drawn) [(2S)-tetrahydrofuran-3-yl 2-(((3-bromoimidazo[1,2-b]pyridazin-6-yl)amino)methyl)pyrrolidine-1-carboxylate]
≤ 10	OCc1ccc(-c2cnc3ccc(NCCOC4CCCC4)nn23)cc1 [(4-(6-((2-(cyclopentyloxy)ethyl)amino)imidazo[1,2-b]pyridazin-3-yl)phenyl)methanol]
≤ 10	CC(C)CC(=O)N1CCC[C@H]1CNc1ccc2ncc(-c3ccnc(F)c3)n2n1 [(S)-1-(2-(((3-(2-fluoropyridin-4-yl)imidazo[1,2-b]pyridazin-6-yl)amino)methyl)pyrrolidin-1-yl)-3-methylbutan-1-one]
≤ 10	CC(C)CC(=O)N1CCC[C@H]1CNc1ccc2ncc(C3=CCCC3)n2n1 [(S)-1-(2-(((3-(cyclopent-1-en-1-yl)imidazo[1,2-b]pyridazin-6-yl)amino)methyl)pyrrolidin-1-yl)-3-methylbutan-1-one]
≤ 10	CCCC(=O)N1CCC[C@H]1CNc1ccc2ncc(-c3ccncc3)n2n1 [(S)-1-(2-(((3-(pyridin-4-yl)imidazo[1,2-b]pyridazin-6-yl)amino)methyl)pyrrolidin-1-yl)butan-1-one]
≤ 10	CC(C)(C)CCN1C(=O)CC[C@H]1CNc1ccc2ncc(-c3ccncc3)n2n1 [(S)-1-(3,3-dimethylbutyl)-5-(((3-(pyridin-4-yl)imidazo[1,2-b]pyridazin-6-yl)amino)methyl)pyrrolidin-2-one]
≤ 1000	COc1ncccc1-c1cnc2ccc(N3CC[C@H](O)C3)nn12 [(S)-1-(3-(2-methoxypyridin-3-yl)imidazo[1,2-b]pyridazin-6-yl)pyrrolidin-3-ol]
≤ 10	CC(C)C[C@H](N)C(=O)N1CCN(c2ccc3ncc(Br)n3n2)CC1 [(S)-2-amino-1-(4-(3-bromoimidazo[1,2-b]pyridazin-6-yl)piperazin-1-yl)-4-methylpentan-1-one]
≤ 100	CC(C)C[C@H](N)C(=O)N1CCN(c2ccc3ncc(Cl)n3n2)CC1 [(S)-2-amino-1-(4-(3-chloroimidazo[1,2-b]pyridazin-6-yl)piperazin-1-yl)-4-methylpentan-1-one]
≤ 1000	CC(C)C[C@H](N)C(=O)N1CCN(c2ccc3nccn3n2)CC1 [(S)-2-amino-1-(4-(imidazo[1,2-b]pyridazin-6-yl)piperazin-1-yl)-4-methylpentan-1-one]
≤ 10	Cc1cnc2ccc(N3CCN(C(=O)[C@@H](N)C(C)C)CC3)nn12 [(S)-2-amino-3-methyl-1-(4-(3-methylimidazo[1,2-b]pyridazin-6-yl)piperazin-1-yl)butan-1-one]
≤ 100	Cc1cnc2ccc(N3CCN(C(=O)[C@@H](N)CC(C)C)CC3)nn12 [(S)-2-amino-4-methyl-1-(4-(3-methylimidazo[1,2-b]pyridazin-6-yl)piperazin-1-yl)pentan-1-one]
≤ 10	CN(C(=O)CC1CC1)[C@H]1CCN(c2ccc3ncc(-c4cccnc4O)n3n2)C1 [(S)-2-cyclopropyl-N-(1-(3-(2-hydroxypyridin-3-yl)imidazo[1,2-b]pyridazin-6-yl)pyrrolidin-3-yl)-N-methylacetamide]
≤ 100	COCCOC(=O)N(C)[C@H]1CCN(c2ccc3ncc(-c4cccnc4OC)n3n2)C1 [(S)-2-methoxyethyl (1-(3-(2-methoxypyridin-3-yl)imidazo[1,2-b]pyridazin-6-yl)pyrrolidin-3-yl)(methyl)carbamate]
≤ 10	CN(C(=O)CC(F)(F)F)[C@H]1CCN(c2ccc3ncc(-c4cccnc4O)n3n2)C1 [(S)-3,3,3-trifluoro-N-(1-(3-(2-hydroxypyridin-3-yl)imidazo[1,2-b]pyridazin-6-yl)pyrrolidin-3-yl)-N-methylpropanamide]

IC50 [nM]	SMILES
≤ 1000	COCCO[C@H]1CCN(c2ccc3ncc(-c4cc(C)cnc4OC)n3n2)C1 [(S)-3-(2-methoxy-5-methylpyridin-3-yl)-6-(3-(2-methoxyethoxy)pyrrolidin-1-yl)imidazo[1,2-b]pyridazine]
≤ 100	COCCO[C@H]1CCN(c2ccc3ncc(-c4ccc(C)nc4OC)n3n2)C1 [(S)-3-(2-methoxy-6-methylpyridin-3-yl)-6-(3-(2-methoxyethoxy)pyrrolidin-1-yl)imidazo[1,2-b]pyridazine]
≤ 1000	COCCO[C@H]1CCN(c2ccc3ncc(-c4cccnc4OC)n3n2)C1 [(S)-6-(3-(2-methoxyethoxy)pyrrolidin-1-yl)-3-(2-methoxypyridin-3-yl)imidazo[1,2-b]pyridazine]
≤ 1000	COCC(=O)N(C)[C@H]1CCN(c2ccc3ncc(-c4cccnc4O)n3n2)C1 [(S)-N-(1-(3-(2-hydroxypyridin-3-yl)imidazo[1,2-b]pyridazin-6-yl)pyrrolidin-3-yl)-2-methoxy-N-methylacetamide]
≤ 100	CC(C)CC(=O)N(C)[C@H]1CCN(c2ccc3ncc(-c4cccnc4O)n3n2)C1 [(S)-N-(1-(3-(2-hydroxypyridin-3-yl)imidazo[1,2-b]pyridazin-6-yl)pyrrolidin-3-yl)-N,3-dimethylbutanamide]
≤ 100	CCCC(=O)N(C)[C@H]1CCN(c2ccc3ncc(-c4cccnc4O)n3n2)C1 [(S)-N-(1-(3-(2-hydroxypyridin-3-yl)imidazo[1,2-b]pyridazin-6-yl)pyrrolidin-3-yl)-N-methylbutyramide]
≤ 100	CCCC(=O)N(C)[C@H]1CCN(c2ccc3ncc(-c4cccnc4OC)n3n2)C1 [(S)-N-(1-(3-(2-methoxypyridin-3-yl)imidazo[1,2-b]pyridazin-6-yl)pyrrolidin-3-yl)-N-methylbutyramide]
≤ 1000	CCCC(=O)N(C)[C@H]1CCN(c2ccc3ncc(Br)n3n2)C1 [(S)-N-(1-(3-bromoimidazo[1,2-b]pyridazin-6-yl)pyrrolidin-3-yl)-N-methylbutyramide]
≤ 100	CN(C(=O)N1CCCC1)[C@H]1CCN(c2ccc3ncc(Br)n3n2)C1 [(S)-N-(1-(3-bromoimidazo[1,2-b]pyridazin-6-yl)pyrrolidin-3-yl)-N-methylpyrrolidine-1-carboxamide]
≤ 1000	CCCC(=O)N(C)[C@H]1CCN(c2ccc3ncc(-c4cccnc4)n3n2)C1 [(S)-N-methyl-N-(1-(3-(pyridin-3-yl)imidazo[1,2-b]pyridazin-6-yl)pyrrolidin-3-yl)butyramide]
≤ 100	CCCC(=O)N(C)[C@H]1CCN(c2ccc3ncc(-c4ccncc4)n3n2)C1 [(S)-N-methyl-N-(1-(3-(pyridin-4-yl)imidazo[1,2-b]pyridazin-6-yl)pyrrolidin-3-yl)butyramide]
≤ 100	CN(C(=O)N1CCCC1)[C@H]1CCN(c2ccc3ncc(-c4ccncc4)n3n2)C1 [(S)-N-methyl-N-(1-(3-(pyridin-4-yl)imidazo[1,2-b]pyridazin-6-yl)pyrrolidin-3-yl)pyrrolidine-1-carboxamide]
≤ 10	N#Cc1cnc2ccc(NC[C@@H]3CCCN3C(=O)OC3CCCC3)nn12 [(S)-cyclopentyl 2-(((3-cyanoimidazo[1,2-b]pyridazin-6-yl)amino)methyl)pyrrolidine-1-carboxylate]
≤ 10	O=C(OCC1CC1)N1CCC[C@H]1CNc1ccc2ncc(-c3ccncc3)n2n1 [(S)-cyclopropylmethyl 2-(((3-(pyridin-4-yl)imidazo[1,2-b]pyridazin-6-yl)amino)methyl)pyrrolidine-1-carboxylate]
≤ 10	O=C(OCC1CC1)N1CCC[C@H]1CNc1ccc2ncc(Br)n2n1 [(S)-cyclopropylmethyl 2-(((3-bromoimidazo[1,2-b]pyridazin-6-yl)amino)methyl)pyrrolidine-1-carboxylate]
≤ 100	CC(C)OC(=O)N1CCC[C@H]1COc1ccc2ncc(-c3cccnc3O)n2n1 [(S)-isopropyl 2-(((3-(2-hydroxypyridin-3-yl)imidazo[1,2-b]pyridazin-6-yl)oxy)methyl)pyrrolidine-1-carboxylate]
≤ 100	COc1ncccc1-c1cnc2ccc(OC[C@@H]3CCCN3C(=O)OC(C)C)nn12 [(S)-isopropyl 2-(((3-(2-methoxypyridin-3-yl)imidazo[1,2-b]pyridazin-6-yl)oxy)methyl)pyrrolidine-1-carboxylate]
≤ 100	Cc1ccc(-c2cnc3ccc(N4CC[C@H](N(C)C(=O)OC(C)C)C4)nn23)c(=O)n1C [(S)-isopropyl (1-(3-(1,6-dimethyl-2-oxo-1,2-dihydropyridin-3-yl)imidazo[1,2-b]pyridazin-6-yl)pyrrolidin-3-yl)(methyl)carbamate]
